From PubChem BioAssay AID1963442 (Molecular Pharmacology Branch, DTP, NCI, 2024)
pIC50: −log10 of the molar value.

System: MPNST complex spheroid with HUVEC/MSC, growth, % test/control
Experiment: Anticancer human tumor MPNST cell line growth inhibition [Asc];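 note: compounds left on spheroids for seven days before reading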
Conditions: for pIC50: curve of first compound; for viability, T/C: stronger effect = lower value
Method in brief: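 Spheroid model: tumor line + HUVEC + hMSC. Single agents and combinations; top conc. at/near clinical Cmax (10 microM if undetermined), half-log dilutions. DMSO stocks at 800-fold test concentration.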

[1] = second compound 0.1 µM, first compound 0.0316 µM
[2] = second compound 0.1 µM, first compound 0.1 µM
[3] = second compound 0.1 µM, first compound 0.316 µM
[4] = second compound 0.1 µM, first compound 1 µM
[5] = second compound 0.316 µM, first compound 0.0316 µM
[6] = second compound 0.316 µM, first compound 0.1 µM
[7] = second compound 0.316 µM, first compound 0.316 µM
[8] = second compound 0.316 µM, first compound 1 µM
[9] = second compound 1 µM, first compound 0.0316 µM
[10] = second compound 1 µM, first compound 0.1 µM
[11] = second compound 1 µM, first compound 0.316 µM
[12] = second compound 1 µM, first compound 1 µM
[13] = second compound 3.16 µM, first compound 0.0316 µM
[14] = second compound 3.16 µM, first compound 0.1 µM
[15] = second compound 3.16 µM, first compound 0.316 µM
[16] = second compound 3.16 µM, first compound 1 µM
[17] = second compound 10 µM, first compound 0.0316 µM
[18] = second compound 10 µM, first compound 0.1 µM
[19] = second compound 10 µM, first compound 0.316 µM
[20] = second compound 10 µM, first compound 1 µM

| SMILES | pIC50 (second compound 0.1 µM) | pIC50 (second compound 0.316 µM) | pIC50 (second compound 1 µM) | pIC50 (second compound 3.16 µM) | pIC50 (second compound 10 µM) | viability, T/C [1] | viability, T/C [2] | viability, T/C [3] | viability, T/C [4] | viability, T/C [5] | viability, T/C [6] | viability, T/C [7] | viability, T/C [8] | viability, T/C [9] | viability, T/C [10] | viability, T/C [11] | viability, T/C [12] | viability, T/C [13] | viability, T/C [14] | viability, T/C [15] | also measured |
| --- | --- | --- | --- | --- | --- | --- | --- | --- | --- | --- | --- | --- | --- | --- | --- | --- | --- | --- | --- | --- | --- |
| O=C(c1cc(Cc2n[nH]c(=O)c3ccccc23)ccc1F)N1CCN(C(=O)C2CC2)CC1 + Cc1c(S(C)(=O)=O)c(-c2cc(F)cc(N3CCN(c4ccc(NS(=O)(=O)c5ccc(NC(CCN6CCC(C(=O)OCCCP(=O)(O)O)CC6)CSc6ccccc6)c(S(=O)(=O)C(F)(F)F)c5)cc4)CC3)c2)c(-c2ccc(Cl)cc2)n1C(C)C | < 5.00 | < 5.00 | 5.01 | < 5.00 | < 5.00 | 81.9% | 59.6% | 68.3% | 64.5% | 70.9% | 67.1% | 56.8% | 69.5% | 58.5% | 78.6% | 65.6% | 79.7% | 101% | 72.9% | 77.1% | viability, T/C (second compound 0.1 µM, first compound 3.16 µM): 81.1%; viability, T/C (second compound 0.1 µM, first compound 10 µM): 64.5%; viability, T/C (second compound 0.316 µM, first compound 3.16 µM): 60.8%; viability, T/C (second compound 0.316 µM, first compound 10 µM): 49.8%; viability, T/C (second compound 1 µM, first compound 3.16 µM): 72.6%; viability, T/C (second compound 1 µM, first compound 10 µM): 49.7%; viability, T/C [16]: 64%; viability, T/C (second compound 3.16 µM, first compound 3.16 µM): 58.8%; viability, T/C (second compound 3.16 µM, first compound 10 µM): 51.5%; viability, T/C [17]: 75%; viability, T/C [18]: 85.8%; viability, T/C [19]: 76.9%; viability, T/C [20]: 62.5%; viability, T/C (second compound 10 µM, first compound 3.16 µM): 68.9%; viability, T/C (second compound 10 µM, first compound 10 µM): 49% |
| O=C(c1ccc(F)c(F)c1Nc1ccc(I)cc1F)N1CC(O)([C@@H]2CCCCN2)C1 + Cc1c(S(C)(=O)=O)c(-c2cc(F)cc(N3CCN(c4ccc(NS(=O)(=O)c5ccc(NC(CCN6CCC(C(=O)OCCCP(=O)(O)O)CC6)CSc6ccccc6)c(S(=O)(=O)C(F)(F)F)c5)cc4)CC3)c2)c(-c2ccc(Cl)cc2)n1C(C)C | 6.52 | 6.47 | 6.59 | 6.62 | 6.74 | 77.1% | 95.3% | 49% | 22.4% | 107% | 106% | 51.9% | 16.5% | 106% | 77% | 44.3% | 13.2% | 80.7% | 110% | 36.6% | viability, T/C (second compound 0.1 µM, first compound 0.00316 µM): 62.2%; viability, T/C (second compound 0.1 µM, first compound 0.01 µM): 69.7%; viability, T/C (second compound 0.316 µM, first compound 0.00316 µM): 83%; viability, T/C (second compound 0.316 µM, first compound 0.01 µM): 80.3%; viability, T/C (second compound 1 µM, first compound 0.00316 µM): 82.9%; viability, T/C (second compound 1 µM, first compound 0.01 µM): 80.6%; viability, T/C (second compound 3.16 µM, first compound 0.00316 µM): 86.2%; viability, T/C (second compound 3.16 µM, first compound 0.01 µM): 90.3%; viability, T/C [16]: 14.5%; viability, T/C (second compound 10 µM, first compound 0.00316 µM): 86.3%; viability, T/C (second compound 10 µM, first compound 0.01 µM): 81.9%; viability, T/C [17]: 82.5%; viability, T/C [18]: 72.8%; viability, T/C [19]: 28.8%; viability, T/C [20]: 8.55% |
